System: NCI-H1417 cells
Assay: Cell growth suppression test, CellTiter-Glo Luminescent Cell Viability Assay
Assay type: cell-based
Settings: Homo sapiens, 240 h; NCI-H1417 cells treated for 10 days
Protocol: Cell growth suppression effects of the synthesized compounds on NCI-H1417 cells were identified. The cells were treated with the synthesized compounds for 10 days. Then, in order to test the cell growth suppression, CellTiter-Glo Luminescent Cell Viability Assay (available from Promega, USA) was used. This test is to measure emission signals proportional to the number of ATPs based on a fixed amount of ATPs, which represents the presence of metabolically active cells, thereby determining the number of viable cells. The results are expressed as a GI50 value. As for a control, GSK2879552 (available from GlaxoSmithKline USA) was used.

| SMILES | GI50 [nM] |
| --- | --- |
| CC1CC(C)CN(c2ccc(-n3nc(C(=O)N4CCC[C@@H](N)C4)cc3-c3ccc(C#N)c(F)c3)c(F)c2)C1 (stereo partly drawn) [Example 82, 4-(3-((R)-3-aminopiperidine-1-carbonyl)-1-(4-(3,5-dimethylpiperidine-1-yl)-2-fluorophenyl)-1H-pyrazole-5-yl)-2-fluorobenzonitrile] | 119 |
| CC(C)(C)c1ccc(-n2nc(C(=O)N3CCCC[C@@H](N)C3)cc2-c2ccc(C#N)c(F)c2)c(F)c1 [Example 44] | 133 |
| N#Cc1ccc(-c2cc(C(=O)N3CCCC[C@@H](N)C3)nn2-c2ccc(C3CC3)cc2F)cc1F [Example 8, (R)-4-(3-(3-aminoazepane-1-carbonyl)-1-(4-cyclopropyl-2-fluorophenyl)-1H-pyrazole-5-yl)-2-fluorobenzonitrile] | 101 |
| CN[C@@H]1CCCN(C(=O)c2cc(-c3ccc(C#N)c(F)c3)n(-c3ccc(N4CCCC4)cc3F)n2)C1 [Example 59, (R)-2-fluoro-4-(1-(2-fluoro-4-(pyrrolidine-1-yl)phenyl)-3-(3-(methylamino)piperidine-1-carbonyl)-1H-pyrazole-5-yl)benzonitrile] | 9.7 |
| N#Cc1ccc(-c2cc(C(=O)N3CCC[C@@H](N)C3)nn2-c2ccc3c(c2)CCC3)cc1 [Example 87, (R)-4-(3-(3-aminopiperidine-1-carbonyl)-1-(2,3-dihydro-1H-indane-5-yl)-1H-pyrazole-5-yl)benzonitrile] | 142 |
| N#Cc1ccc(-c2cc(C(=O)N3CCC[C@@H](N)C3)nn2-c2ccc(N3CCCC3)cc2F)cc1F [Example 58, (R)-4-(3-(3-aminopiperidine-1-carbonyl)-1-(2-fluoro-4-(pyrrolidine-1-yl)phenyl)-1H-pyrazole-5-yl)-2-fluorobenzonitrile] | 24 |
| CC(C)c1ccc(-n2nc(C(=O)N3CCC[C@@H](N)C3)cc2-c2ccc(C#N)c(F)c2)c(F)c1 [Example 38, (R)-4-(3-(3-aminopiperidine-1-carbonyl)-1-(2-fluoro-4-isopropylphenyl)-1H-pyrazole-5-yl)-2-fluorobenzonitrile] | 79 |
| CN(C)c1ccc(-n2nc(C(=O)N3CCC[C@@H](N)C3)cc2-c2ccc(C#N)cc2)c(F)c1 [Example 54, (R)-4-(3-(3-aminopiperidine-1-carbonyl)-1-(4-(dimethylamino)-2-fluorophenyl)-1H-pyrazole-5-yl)benzonitrile] | 84 |
| N#Cc1ccc(-c2cc(C(=O)N3CCC[C@@H](N)C3)nn2-c2ccc(N3CCC(F)(F)C3)cc2F)cc1F [Example 63, (R)-4-(3-(3-aminopiperidine-1-carbonyl)-1-(4-(3,3-difluoropyrrolidine-1-yl)-2-fluorophenyl)-1H-pyrazole-5-yl)-2-fluorobenzonitrile] | 33 |
| COC1CCN(c2ccc(-n3nc(C(=O)N4CCC[C@@H](N)C4)cc3-c3ccc(C#N)c(F)c3)c(F)c2)C1 (stereo partly drawn) [Example 65, 4-(3-((R)-3-aminopiperidine-1-carbonyl)-1-(2-fluoro-4-(3-methoxypyrrolidin-1-yl)phenyl)-1H-pyrazol-5-yl)-2-fluorobenzonitrile] | 58 |
| CC(C)(C)c1ccc(-n2nc(C(=O)N3CCC[C@@H](N)C3)cc2-c2ccc(C#N)c(F)c2)c(F)c1 [Example 43] | 69 |
| COc1cc(N2CCCC2)ccc1-n1nc(C(=O)N2CCC[C@@H](N)C2)cc1-c1ccc(C#N)c(F)c1 [Example 76, (R)-4-(3-(3-aminopiperidine-1-carbonyl)-1-(2-methoxy-4-(pyrrolidine-1-yl)phenyl)-1H-pyrazole-5-yl)-2-fluorobenzonitrile] | 43 |
| CC(C)(C)c1ccc(-n2nc(C(=O)N3CCC[C@@H](N)C3)cc2-c2ccc(C#N)cc2)cc1 [Example 40, (R)-4-(3-(3-aminopiperidine-1-carbonyl)-1-(4-(tert-butyl)phenyl)-1H-pyrazole-5-yl)benzonitrile] | 226 |
| N#Cc1ccc(-c2cc(C(=O)N3CCC[C@@H](N)C3)nn2-c2ccc(N3CCCC3)cc2F)cc1 [Example 57, (R)-4-(3-(3-aminopiperidine-1-carbonyl)-1-(2-fluoro-4-(pyrrolidine-1-yl)phenyl)-1H-pyrazole-5-yl)benzonitrile] | 45 |
| N#Cc1ccc(-c2cc(C(=O)N3CCC[C@@H](N)C3)nn2-c2ccc(C3CC3)cc2F)cc1 [Example 3, (R)-4-(3-(3-aminopiperidine-1-carbonyl)-1-(4-cyclopropyl-2-fluorophenyl)-1H-pyrazole-5-yl)benzonitrile] | 49 |
| N#Cc1ccc(-c2cc(C(=O)N3CCCC[C@@H](N)C3)nn2-c2ccc(N3CCCCC3)cc2F)cc1F [Example 84, (R)-4-(3-(3-aminoazepane-1-carbonyl)-1-(2-fluoro-4-(piperidine-1-yl)phenyl)-1H-pyrazole-5-yl)-2-fluorobenzonitrile] | 84 |

| SMILES | GI50 [nM] |
| --- | --- |
| N#Cc1ccc(-c2cc(C(=O)N3CCC[C@@H](N)C3)nn2-c2ccc(N3CCC(O)C3)cc2F)cc1F (stereo partly drawn) [Example 72, 4-(3-((R)-3-aminopiperidine-1-carbonyl)-1-(2-fluoro-4-(3-hydroxypyrrolidine-1-yl)phenyl)-1H-pyrazole-5-yl)-2-fluorobenzonitrile] | 38 |
| N#Cc1ccc(-c2cc(C(=O)N3CCC[C@@H](N)C3)nn2-c2ccc(N3CCCCC3)cc2F)cc1 [Example 77, (R)-4-(3-(3-aminopiperidine-1-carbonyl)-1-(2-fluoro-4-(piperidine-1-yl)phenyl)-1H-pyrazole-5-yl)benzonitrile] | 67 |
| CN[C@@H]1CCCN(C(=O)c2cc(-c3ccc(C#N)c(F)c3)n(-c3ccc(N4CC[C@@H](OC)C4)cc3F)n2)C1 [Example 70, 2-fluoro-4-(1-(2-fluoro-4-((R)-3-methoxypyrrolidine-1-yl)phenyl)-3-((R)-3-(methylamino)piperidine-1-carbonyl)-1H-pyrazole-5-yl)benzonitrile] | 18 |
| CN[C@@H]1CCCN(C(=O)c2cc(-c3ccc(C#N)cc3)n(-c3ccc(C4CC4)cc3F)n2)C1 [Example 4, (R)-4-(1-(4-cyclopropyl-2-fluorophenyl)-3-(3-(methylamino)piperidine-1-carbonyl)-1H-pyrazole-5-yl)benzonitrile] | 24 |
| CC(C)c1ccc(-n2nc(C(=O)N3CCC[C@@H](N)C3)cc2-c2ccc(C#N)cc2)c(F)c1 [Example 37, (R)-4-(3-(3-aminopiperidine-1-carbonyl)-1-(2-fluoro-4-isopropylphenyl)-1H-pyrazole-5-yl) benzonitrile] | 215 |
| CN[C@@H]1CCCN(C(=O)c2cc(-c3ccc(C#N)c(F)c3)n(-c3ccc(N4CC[C@H](Cl)C4)cc3F)n2)C1 [Example 73, 2-fluoro-4-(1-(2-fluoro-4-((S)-3-chloropyrrolidine-1-yl)phenyl)-3-((R)-3-(methylamino)piperidine-1-carbonyl)-1H-pyrazole-5-yl)benzonitrile] | 39 |
| CN[C@@H]1CCCN(C(=O)c2cc(-c3ccc(C#N)c(F)c3)n(-c3ccc(N4CCC(F)(F)C4)cc3F)n2)C1 [Example 64, (R)-4-(1-(4-(3,3-difluoropyrrolidine-1-yl)-2-fluorophenyl)-3-(3-(methylamino)piperidine-1-carbonyl)-1H-pyrazole-5-yl)-2-fluorobenzonitrile] | 19 |
| N#Cc1ccc(-c2cc(C(=O)N3CCC[C@@H](N)C3)nn2-c2ccc(N3CCCCC3)cc2F)cc1F [Example 78, (R)-4-(3-(3-aminopiperidine-1-carbonyl)-1-(2-fluoro-4-(piperidine-1-yl)phenyl)-1H-pyrazole-5-yl)-2-fluorobenzonitrile] | 34 |
| CC(C)c1ccc(-n2nc(C(=O)N3CCC[C@@H](N)C3)cc2-c2ccc(C#N)cc2)cc1 [Example 35, (R)-4-(3-(3-aminopiperidine-1-carbonyl)-1-(4-isopropylphenyl)-1H-pyrazole-5-yl)benzonitrile] | 145 |
| CO[C@H]1CCN(c2ccc(-n3nc(C(=O)N4CCC[C@@H](N)C4)cc3-c3ccc(C#N)c(F)c3)c(F)c2)C1 [Example 67, 4-(3-((R)-3-aminopiperidine-1-carbonyl)-1-(2-fluoro-4-((S)-3-methoxypyrrolidine-1-yl)phenyl)-1H-pyrazole-5-yl)-2-fluorobenzonitrile] | 30 |
| CN[C@@H]1CCCN(C(=O)c2cc(-c3ccc(C#N)cc3)n(-c3ccc(C4CC4)cc3)n2)C1 [Example 2, (R)-4-(1-(4-cyclopropylphenyl)-3-(3-methylaminopiperidine-1-carbonyl)-1H-pyrazole-5-yl)benzonitrile] | 120 |
| CN(C)c1ccc(-n2nc(C(=O)N3CCC[C@@H](N)C3)cc2-c2ccc(C#N)cc2)cc1 [Example 53] | 102 |
| CN[C@@H]1CCCN(C(=O)c2cc(-c3ccc(C#N)c(F)c3)n(-c3ccc(N4CCC(OC)C4)cc3F)n2)C1 (stereo partly drawn) [Example 66, 2-fluoro-4-(1-(2-fluoro-4-(3-methoxypyrrolidine-1-yl)phenyl)-3-((R)-3-(methylamino)piperidine-1-carbonyl)-1H-pyrazole-5-yl)benzonitrile] | 16 |
| CN[C@@H]1CCCN(C(=O)c2cc(-c3ccc(C#N)c(F)c3)n(-c3ccc(N4CC[C@H](OC)C4)cc3F)n2)C1 [Example 68, 2-fluoro-4-(1-(2-fluoro-4-((S)-3-methoxypyrrolidine-1-yl)phenyl)-3-((R)-3-(methylamino)piperidine-1-carbonyl)-1H-pyrazole-5-yl)benzonitrile] | 6.8 |
| N#Cc1ccc(-c2cc(C(=O)N3CCC[C@@H](N)C3)nn2-c2c(F)cc(C3CC3)cc2F)cc1F [Example 10, (R)-4-(3-(3-aminopiperidine-1-carbonyl)-1-(4-cyclopropyl-2,6-difluorophenyl)-1H-pyrazole-5-yl)-2-fluorobenzonitrile] | 108 |
| CN[C@@H]1CCCN(C(=O)c2cc(-c3ccc(C#N)cc3)n(-c3ccc(C(C)(C)C)cc3)n2)C1 [Example 41] | 126 |

Reference: patent US11254676B2, “Pyrazole derivative compound and use thereof” (HANMI PHARM. CO., LTD., priority 2017, dated 2022)
